Read-outs that look alike come from different tables or passages of the source.
Key:
[1] = tested on: E. rostratum hyphal fragments; assay: hyphal fragment fungicidal ATP content assay (PBS, 1536-well); format: cell-based, Exserohilum rostratum; conditions: for Hyphae % Max. Resp. / Hyphae % M. Res. / Emax: 46 µM Amphotericin B = 100%; for IC50: read-out: Hyphae IC50
Description: (§1) Conidia and hyphae of E. rostratum were obtained as described by Richard et al., with the following modifications. Briefly, conidia were harvested from Potato Dextrose Agar (PDA) cultured media with 0.05% Tween 80, and the conidial suspension was filtered using a Cell Strainer (100 µm, BD Falcon REF 352340). After centrifugation at 700g for 10 min, the suspension was decanted and conidia were resuspended at 1×10^5 per ml in RPMI and counted in a hemocytometer. Hyphae were harvested from yeast extract peptone dextrose (YPD) culture media with 0.05% Tween 80. Hyphal fragments were sized by vortexing 15 sec twice with 0.4 mm glassbeads, and the hyphae suspension was filtered by cheese cloth twice. […] To normalize concentrations of hyphal fragments for batch to batch consistency, carbohydrate analysis was performed by a phenol-sulfuric acid method as previously described. The final stock concentration of hyphae was adjusted to 1.0 (OD490) per 100 µl.
(§2) The ATPLite assay kit, consisting of luciferase/luciferin and detergent, was used to quantitate cellular ATP levels as a marker for cell viability (Table 1). For assay development, hyphal fragments or conidia in PBS were plated in a seeding density of 3,750, 7,500 and 15,000 cellular particles/well with a final volume of 5 µl/well using the Multidrop-Combi dispenser in white 1536-well plates. Conidia or hyphae fragments were incubated for 24 h at 37°C in a 5% CO2 humidified atmosphere. ATPLite detection reagents were added at 4 µl/well. The assay plates were incubated at room temperature for 15 minutes before reading luminescence intensity on a ViewLux plate reader (Perkin Elmer, Waltham, MA). Conidia suspended in RPMI medium were inoculated at concentrations of 62.5, 125 and 250 conidia/well with a final volume of 5 µl/well in white 1536-well plates. The conidia assay was developed and optimized in the same way as the hyphal assay.
(§3) The LOPAC library (Sigma-Aldrich) has been extensively used for HTS assay validations, [18]. The NIH Chemical Genomics Center Pharmaceutical (NPC) collection was constructed in-house through a combined effort of compound purchasing and custom synthesis and recently expanded to 4096 compounds. […] 2.5 µl/well PBS was dispensed into 1536-well plates using a Multidrop-Combi dispenser. Compound in DMSO solution was transferred in a volume of 23 nl/well using a NX-TR pintool station (WAKO Scientific Solutions, San Diego, CA). This additional PBS step for compound addition was designed to prevent the potential fungal contamination of compound libraries. The hyphal fragments in PBS were then added at 2.5 µl/well for a final seeding density of 15,000 hyphal fragments/well using the Multidrop-Combi dispenser. The final compound concentration was 46 µM in the primary screen. The assay plates were incubated for 24 h at 30°C before the detection of cellular viability with the ATP content assay. Screen of conidia was performed in a similar way except that PBS was replaced with RPMI medium and conidia were plated for a final seeding density of 250 conidia/well.
(§4) The primary screen data and curve fitting were analyzed using software developed internally at the NIH Chemical Genomics Center (NCGC). Total signals for cellular viability (100% cellular viability) were calculated from the wells with DMSO solvent and the complete cell killing (0% cellular viability) was calculated from 46 µM amphotericin B treated wells. […] All values were expressed as the mean +/− SD (n≥3).

E. rostratum conidia = assay: conidia growth inhibition ATP content assay (RPMI, 1536-well); format: cell-based, Exserohilum rostratum; conditions: for IC50: read-out: Conidia IC50; for Conidia IC50: Inact. = no significant activity at the highest compound concentration (46 µM)
Description: as §1, §2, §3, §4

SH-SY5Y cells = assay: SH-SY5Y cytotoxicity counter-screen (ATP content assay); format: cell-based, Human; conditions: for SH-SY5Y % Max. Resp.: Table 2, SH-SY5Y, inact. = no significant activity at 46 µM; for SH-SY5Y % M. Res.: Inact. = no significant activity at 46 µM
Description: Human neuroblastoma SH-SY5Y cell line (Catalog No. CRL-2266) was purchased from ATCC (Manassas, VA). SH-SY5Y cell line was cultured in 175-cm^2 tissue culture flasks (Costar, Cambridge, MA) with 30 ml of growth medium at 37°C in a 5% CO2 humidified atmosphere. Growth medium was made with Dulbecco's Modified Eagle Medium: Nutrient Mixture F-12 with 10% fetal bovine serum (FBS). Growth medium was replaced every other day and cells were passed at 75% confluence.
as §2
Two small known compound libraries including the LOPAC (1280 compounds) and approved drugs (4096 compounds) were screened in parallel using the above optimized assays for hyphae and conidia in 1536-well plates (Fig. 4). […] A mammalian SH-SY5Y cell line was used in parallel as a counter-screen with the same ATP content assay kit to assess the specificity of these compounds for E. rostratum.

[2] = Table 2, inact. = no significant activity in the primary screen
[3] = Table 2, 24 h, inact. = no significant activity in the primary screen
[4] = Exserohilum rostratum, 24 h, Table 2, 24 h, inact. = no significant activity at the highest compound concentration (46 µM)
[5] = Exserohilum rostratum, Table 2, 46 µM Amphotericin B = 100%, inact. = no significant activity at 46 µM, read-out: Conidia % Max. Resp.
[6] = Table S1, Inact. = no significant activity in the primary screen
[7] = Table S1, 46 µM Amphotericin B = 100%, Inact. = no significant activity at 46 µM
[8] = Table S1, 46 µM Amphotericin B = 100%
[9] = Table S1, Inact. = no significant activity at the highest compound concentration (46 µM)
[10] = Exserohilum rostratum, Table S1, Inact. = no significant activity in the primary screen, read-out: Hyphae % M. Res.
[11] = Exserohilum rostratum, Table S1, 46 µM Amphotericin B = 100%, Inact. = no significant activity at 46 µM, read-out: Conidia % M. Res.
[12] = Exserohilum rostratum, Table 2, inact. = no significant activity in the primary screen, read-out: Hyphae % Max. Resp.
[13] = Exserohilum rostratum, Table 2, 24 h, inact. = no significant activity in the primary screen
[14] = Exserohilum rostratum, Table S1, Inact. = no significant activity in the primary screen

Structure (SMILES) | Hyphae % Max. Resp. [1, 2] | IC50 (E. rostratum conidia; [4]) [nM] | Emax (E. rostratum conidia; [5]) [%] | SH-SY5Y % Max. Resp. (SH-SY5Y cells; 46 µM Amphotericin B = 100%) | SH-SY5Y % Max. Resp. (SH-SY5Y cells) | Hyphae % M. Res. [1, 6] | Hyphae IC50 [1, 6] | Conidia % M. Res. (E. rostratum conidia; [7]) | Conidia IC50 (E. rostratum conidia; Table S1) | SH-SY5Y % M. Res. (SH-SY5Y cells; [8]) | SH-SY5Y IC50 (SH-SY5Y cells; [9]) | other results
CCCCCCCCCCCCCC[N+](C)(C)C [Tetradonium bromide] | inact. | 2440 | 103 | inact. | inact. | – | – | – | – | – | – | Hyphae IC50 [1, 3]: inact.
Nc1[nH]c(=O)ncc1F [Flucytosine] | – | – | – | – | – | Inact. | Inact. | Inact. | Inact. | Inact. | Inact. | –
CCCCCCCCCC(=O)NO [Decanohydroxamic acid] | – | – | – | – | – | Inact. | Inact. | Inact. | Inact. | Inact. | Inact. | –
Clc1ccc(COC(Cn2ccnc2)c2ccc(Cl)cc2Cl)cc1 (centres unmarked) [Econazole nitrate] | – | – | – | – | – | – | – | – | – | Inact. | – | Emax [1, 10]: 77%; Emax (E. rostratum conidia; [11]): 64%
Cc1ccc2c(Br)cc(Br)c(O)c2n1 [Broquinaldol] | inact. | 7750 | 101 | inact. | inact. | – | – | – | – | – | – | Hyphae IC50 [1, 3]: inact.
N=C(N)c1ccc(OCCCCCOc2ccc(C(=N)N)cc2)cc1 [Pentamidine isethionate] | – | 1110 | 108 | inact. | inact. | – | – | – | – | – | – | Emax [1, 12]: 82%; IC50 [1, 13]: 468 nM
CN(C)C(=S)SC(=S)N(C)C [Tetramethylthiuram monosulfide] | – | – | – | – | – | – | – | – | – | Inact. | – | Emax [1, 10]: 59%; IC50 [1, 14]: 67900 nM; IC50 (E. rostratum conidia; Exserohilum rostratum): 3400 nM; Emax (E. rostratum conidia; [11]): 23%; SH-SY5Y IC50 (SH-SY5Y cells): Inact.
O=[N+]([O-])c1c(Cl)cccc1-c1c[nH]cc1Cl [Pyrrolnitrin] | – | 409 | 101 | inact. | inact. | – | – | – | – | – | – | Emax [1, 12]: 80%; IC50 [1, 13]: 5590 nM
Oc1c(Cl)cc(Cl)cc1Sc1cc(Cl)cc(Cl)c1O [Bithionol] | inact. | 1870 | 100 | inact. | inact. | – | – | – | – | – | – | Hyphae IC50 [1, 3]: inact.
CCCCCCOc1ccccc1C(N)=O [Exalamide] | – | – | – | – | – | Inact. | Inact. | Inact. | Inact. | Inact. | Inact. | –
CO/C=C(/C(=O)OC)c1ccccc1Oc1cc(Oc2ccccc2C#N)ncn1 [Azoxystrobin] | 81% | – | – | inact. | inact. | – | – | – | – | – | – | IC50 [1, 3]: 198 nM; Conidia % Max. Resp. (E. rostratum conidia; Table 2, 46 µM Amphotericin B = 100%, inact. = no significant activity at 46 µM): 83%; IC50 (E. rostratum conidia; Table 2, 24 h, inact. = no significant activity at the highest compound concentration (46 µM)): 304 nM
Cc1cc(O)c2c(c1)O[C@@]1(C)CC[C@H]3C(C)(C)CCC[C@]34CO[C@@H]2[C@H]41 [Siccanin] | – | – | – | – | – | Inact. | Inact. | Inact. | Inact. | Inact. | Inact. | –
Oc1c(I)cc(I)c2cccnc12 [Iodoquinol] | inact. | 2750 | 99 | 58% | 26.3% | – | – | – | – | – | – | Hyphae IC50 [1, 3]: inact.
OC(Cn1cncn1)(Cn1cncn1)c1ccc(F)cc1F [Fluconazole] | – | – | – | – | – | Inact. | Inact. | Inact. | Inact. | Inact. | Inact. | activity in the hyphae assay ([1]; concentrations up to 46 µM): no activity; activity in the conidia assay (E. rostratum conidia; concentrations up to 46 µM): no activity
C[C@@H]1C/C=C/C=C/C=C/C=C/[C@H](O[C@@H]2O[C@H](C)[C@@H](O)[C@H](N)[C@@H]2O)C[C@@H]2O[C@](O)(C[C@@H](O)C[C@H]3O[C@@H]3/C=C/C(=O)O1)C[C@H](O)[C@H]2C(=O)O [Natamycin] | – | – | – | – | – | – | – | Inact. | Inact. | Inact. | Inact. | Emax [1, 10]: 66%; IC50 [1, 14]: 46900 nM
